Calls of active or inactive are those of the source. The rule behind the calls is not given here.
How the values were obtained:
Mus musculus [1] = species on record: Mus musculus; experiment: Effect on Akt2 mRNA expression levels in liver of KK-Ay diabetic mouse model at 0.4 to 1.1 mg added daily to normal chow pellets for 10 weeks by qRT-PCR analysis; format: functional, organism-based
Mus musculus [2] = species on record: Mus musculus; experiment: Effect on CD36 mRNA expression levels in adipose tissue of KK-Ay diabetic mouse model at 0.4 to 1.1 mg added daily to normal chow pellets for 10 weeks by qRT-PCR analysis; format: functional, organism-based
Mus musculus [3] = species on record: Mus musculus; experiment: Effect on Pi3K mRNA expression levels in liver of KK-Ay diabetic mouse model at 0.4 to 1.1 mg added daily to normal chow pellets for 10 weeks by qRT-PCR analysis; format: functional, organism-based
Mus musculus [4] = species on record: Mus musculus; experiment: Effect on AMPKalpha2 mRNA expression levels in liver of KK-Ay diabetic mouse model at 0.4 to 1.1 mg added daily to normal chow pellets for 10 weeks by qRT-PCR analysis; format: functional, organism-based
Mus musculus [5] = species on record: Mus musculus; experiment: Effect on GLUT2 mRNA expression levels in adipose tissue of KK-Ay diabetic mouse model at 0.4 to 1.1 mg added daily to normal chow pellets for 10 weeks by qRT-PCR analysis; format: functional, organism-based
Mus musculus [6] = species on record: Mus musculus; experiment: Effect on Abca1 mRNA expression levels in adipose tissue of KK-Ay diabetic mouse model at 0.4 to 1.1 mg added daily to normal chow pellets for 10 weeks by qRT-PCR analysis; format: functional, organism-based
Mus musculus [7] = species on record: Mus musculus; experiment: Effect on Abca1 mRNA expression levels in liver of KK-Ay diabetic mouse model at 0.4 to 1.1 mg added daily to normal chow pellets for 10 weeks by qRT-PCR analysis; format: functional, organism-based
Mus musculus [8] = species on record: Mus musculus; experiment: Antidiabetic activity in KK-Ay diabetic mouse model assessed as increase in HDL levels at 0.4 to 1.1 mg added daily to normal chow pellets for 10 weeks by colorimetric analysis; format: functional, organism-based
Mus musculus [9] = species on record: Mus musculus; experiment: Effect on Sirt1 mRNA expression levels in muscle of KK-Ay diabetic mouse model at 0.4 to 1.1 mg added daily to normal chow pellets for 10 weeks by qRT-PCR analysis; format: functional, organism-based
Mus musculus [10] = species on record: Mus musculus; experiment: Effect on Sirt1 mRNA expression levels in liver of KK-Ay diabetic mouse model at 0.4 to 1.1 mg added daily to normal chow pellets for 10 weeks by qRT-PCR analysis; format: functional, organism-based
Mus musculus [11] = species on record: Mus musculus; experiment: Induction of 3.3 mM glucose-stimulated insulin secretion in pancreatic islets isolated from KK-Ay diabetic mouse model at 0.4 mg added daily to normal chow pellets for 10 weeks followed by glucose stimulation of isolated pancreatic islets for 1 hr by radioimmunoassay relative to control; format: functional
Mus musculus [12] = species on record: Mus musculus; experiment: Effect on LXRalpha mRNA expression levels in adipose tissue of KK-Ay diabetic mouse model at 0.4 to 1.1 mg added daily to normal chow pellets for 10 weeks by qRT-PCR analysis; format: functional, organism-based
Mus musculus [13] = species on record: Mus musculus; experiment: Effect on Hprt1 mRNA expression levels in liver of KK-Ay diabetic mouse model at 0.4 to 1.1 mg added daily to normal chow pellets for 10 weeks by qRT-PCR analysis; format: functional, organism-based
Mus musculus [14] = species on record: Mus musculus; experiment: Effect on GYS2 mRNA expression levels in muscle of KK-Ay diabetic mouse model at 0.4 to 1.1 mg added daily to normal chow pellets for 10 weeks by qRT-PCR analysis; format: functional, organism-based
Mus musculus [15] = species on record: Mus musculus; experiment: Effect on Adipor1 mRNA expression levels in adipose tissue of KK-Ay diabetic mouse model at 0.4 to 1.1 mg added daily to normal chow pellets for 10 weeks by qRT-PCR analysis; format: functional, organism-based
Mus musculus [16] = species on record: Mus musculus; experiment: Effect on G6PD mRNA expression levels in muscle of KK-Ay diabetic mouse model at 0.4 to 1.1 mg added daily to normal chow pellets for 10 weeks by qRT-PCR analysis; format: functional, organism-based
Mus musculus [17] = species on record: Mus musculus; experiment: Induction of 3.3 mM glucose-stimulated insulin secretion in pancreatic islets isolated from KK-Ay diabetic mouse model at 1.1 mg added daily to normal chow pellets for 10 weeks followed by glucose stimulation of isolated pancreatic islets for 1 hr by radioimmunoassay relative to control; format: functional
Mus musculus [18] = species on record: Mus musculus; experiment: Effect on FAS mRNA expression levels in adipose tissue of KK-Ay diabetic mouse model at 0.4 to 1.1 mg added daily to normal chow pellets for 10 weeks by qRT-PCR analysis; format: functional, organism-based
Mus musculus [19] = species on record: Mus musculus; experiment: Effect on SOD2 mRNA expression levels in muscle of KK-Ay diabetic mouse model at 0.4 to 1.1 mg added daily to normal chow pellets for 10 weeks by qRT-PCR analysis; format: functional, organism-based
Mus musculus [20] = species on record: Mus musculus; experiment: Effect on IRS2 mRNA expression levels in liver of KK-Ay diabetic mouse model at 0.4 to 1.1 mg added daily to normal chow pellets for 10 weeks by qRT-PCR analysis; format: functional, organism-based
Mus musculus [21] = species on record: Mus musculus; experiment: Effect on LXRalpha mRNA expression levels in liver of KK-Ay diabetic mouse model at 0.4 to 1.1 mg added daily to normal chow pellets for 10 weeks by qRT-PCR analysis; format: functional, organism-based
Mus musculus [22] = species on record: Mus musculus; experiment: Effect on Lipc mRNA expression levels in adipose tissue of KK-Ay diabetic mouse model at 0.4 to 1.1 mg added daily to normal chow pellets for 10 weeks by qRT-PCR analysis; format: functional, organism-based
Mus musculus [23] = species on record: Mus musculus; experiment: Effect on water-fat fraction in liver of KK-Ay diabetic mouse model at 0.4 to 1.1 mg added daily to normal chow pellets for 10 weeks by MR spectroscopic analysis; format: functional, organism-based
Mus musculus [24] = species on record: Mus musculus; experiment: Toxicity in KK-Ay diabetic mouse model assessed as effect on body weight at 0.4 mg added daily to normal chow pellets for 4 weeks; format: organism-based; conditions: in vivo, po, 672 h
Mus musculus [25] = species on record: Mus musculus; experiment: Effect on Gcgr mRNA expression levels in muscle of KK-Ay diabetic mouse model at 0.4 to 1.1 mg added daily to normal chow pellets for 10 weeks by qRT-PCR analysis; format: functional, organism-based
Mus musculus [26] = species on record: Mus musculus; experiment: Effect on 18s rRNA expression levels in muscle of KK-Ay diabetic mouse model at 0.4 to 1.1 mg added daily to normal chow pellets for 10 weeks by qRT-PCR analysis; format: functional, organism-based
Mus musculus [27] = species on record: Mus musculus; experiment: Effect on FAS mRNA expression levels in liver of KK-Ay diabetic mouse model at 0.4 to 1.1 mg added daily to normal chow pellets for 10 weeks by qRT-PCR analysis; format: functional, organism-based
Mus musculus [28] = species on record: Mus musculus; experiment: Effect on PPARgamma mRNA expression levels in muscle of KK-Ay diabetic mouse model at 0.4 to 1.1 mg added daily to normal chow pellets for 10 weeks by qRT-PCR analysis; format: functional, organism-based
Mus musculus [29] = species on record: Mus musculus; experiment: Effect on Gcgr mRNA expression levels in adipose tissue of KK-Ay diabetic mouse model at 0.4 to 1.1 mg added daily to normal chow pellets for 10 weeks by qRT-PCR analysis; format: functional, organism-based
Mus musculus [30] = species on record: Mus musculus; experiment: Effect on Akt2 mRNA expression levels in adipose tissue of KK-Ay diabetic mouse model at 0.4 to 1.1 mg added daily to normal chow pellets for 10 weeks by qRT-PCR analysis; format: functional, organism-based
Mus musculus [31] = species on record: Mus musculus; experiment: Effect on SOD2 mRNA expression levels in liver of KK-Ay diabetic mouse model at 0.4 to 1.1 mg added daily to normal chow pellets for 10 weeks by qRT-PCR analysis; format: functional, organism-based
Mus musculus [32] = species on record: Mus musculus; experiment: Antidiabetic activity in KK-Ay diabetic mouse model assessed as increase in INSR mRNA expression levels in liver tissue at 1.1 mg added daily to normal chow pellets for 10 weeks by qRT-PCR analysis; format: functional, organism-based

C[C@@]12CCc3occc3[C@H]1CC[C@@]13C[C@H](CC[C@H]12)[C@@](O)(CO)C3
Activity (Mus musculus [1]): inactive
Activity (Mus musculus [2]): inactive
Activity (Mus musculus [3]): inactive
Activity (Mus musculus [4]): inactive
Activity (Mus musculus [5]): inactive
Activity (Mus musculus [6]): inactive
Activity (Mus musculus [7]): inactive
Activity (Mus musculus [8]): inactive
Activity (Mus musculus [9]): inactive
Activity (Mus musculus [10]): inactive
Activity (Mus musculus [11]): 67%
Activity (Mus musculus [12]): inactive
Activity (Mus musculus [13]): inactive
Activity (Mus musculus [14]): inactive
Activity (Mus musculus [15]): inactive
Activity (Mus musculus [16]): inactive
Activity (Mus musculus [17]): 44%
Activity (Mus musculus [18]): inactive
Activity (Mus musculus [19]): inactive
Activity (Mus musculus [20]): inactive
Activity (Mus musculus [21]): inactive
Activity (Mus musculus [22]): inactive
Activity (Mus musculus [23]): inactive
Activity (Mus musculus [24]): Non-Toxic
Activity (Mus musculus [25]): inactive
Activity (Mus musculus [26]): inactive
Activity (Mus musculus [27]): inactive
Activity (Mus musculus [28]): inactive
Activity (Mus musculus [29]): inactive
Activity (Mus musculus [30]): inactive
Activity (Mus musculus [31]): inactive
Activity (Mus musculus [32]): Active
